Read-outs that look alike come from different tables or passages of the source. One block for each compound: values may come before it.
Tests used:
MDA231 = experiment: In vitro cell viability bioassay, MTT, MDA231; format: cell-based, human
Protocol: (§1) To evaluate the cell growth inhibitory and apoptosis inducing effects of the fluorinated curcuminoids and their BF2 adducts, in-vitro bioassay tests were performed on […] different cancer cell lines namely: MOLT-4 (human leukemia suspension cancer cell line), PC3 and LNCap (human […] prostate cancer cell lines respectively), A549 (lung cancer), and MDA231 (breast cancer), and the results are sketched in Table 3.
(§2) The cell viability/anti-proliferative activity of the curcuminoids against PC3 (human androgen-insensitive prostate cancer cell line), LNCap (human-androgen sensitive prostate cancer cell line), A549 (lung cancer), and MDA231 (breast cancer) were determined by means of 3-(4,5-dimethyl-2-thiazolyl)-2,5-diphenyl-2H-tetrazolium bromide (MTT) assay (the tetrazolium salt was a commercial sample). (R. N. Khaybullin, et al., Molecules, 2014, 19, 18676-18689). The ability of the curcuminoids to affect proliferations of suspension cell lines (MOLT-4) was tested by the CellTiter-Glo® Luminescent Cell Viability Assay (purchased from Promega Madison, Wis., USA) to determine the number of viable cells in culture based on quantitation of the ATP present. The IC50 values were obtained from fitting data with GraphPad software to determine the growth inhibition in the presence of test compounds. (R. N. Khaybullin, et al., Molecules, 2014, 19, 18676-18689).

MOLT-4 = experiment: In vitro cell viability bioassay, CellTiter-Glo, MOLT-4; format: cell-based, human
Protocol: as §1, §2

[1] = tested on: NCI-60 human tumor cell lines; experiment: NCI-60 one-dose screening (10^−5 M); format: cell-based
Source text: The CUR—BF2 adducts 5, 10, and 19, the (CF3)2—CUR 20 and the (CF3)2—CUR—BF2 adduct 21 of FIG. 2 were screened at the National Cancer Institute using NCI-60 cell one-dose protocol (10^−5 M).
(§3) Samples were submitted to the National Cancer Institute (NCI of NIH) Developmental Therapeutics anticancer screening program (DTP) for human tumor cell line assay by NCI-60 screening against leukemia, lung, colon, and CNS cancers, as well as melanoma, ovarian, renal, prostate, and breast cancers. Compounds are initially tested at a single dose of 10-5 molar. Data are reported as mean graph of percent growth (GP). Growth inhibition is shown by values between 0 and 100 and lethality by values less than zero. Compounds that meet selection criteria based on one-dose assay are then tested against 60 cell panel at five concentrations.
as §3, with “NCI-60 assay: Samples” for “Samples”, “10^−5” for “10-5”
as §3, with “NCI-60 assay: samples” for “Samples”, “10^−5” for “10-5”, “(GP). Selected data output are shown in SI file.” for “(GP).”, “represented” for “shown”, “zero.” for “zero. Compounds that meet selection criteria based on one-dose assay are then tested against 60 cell panel at five concentrations.”

LNCap = experiment: In vitro cell viability bioassay, MTT, LNCap; format: cell-based; settings: Homo sapiens, MTT assay, read-out: Prostate Cancer IC50 (μM) LNCap
Protocol: as §1, §2

MM1.S = experiment: Apoptosis (annexin-V/PI flow cytometry), MM1.S; format: cell-based, human; settings: 10 uM
Protocol: (§4) Apoptotic cell death in multiple myeloma (MM) cancer cell lines (RPMI-8226, KMS-11, MM1.S) as well as peripheral blood mononuclear cells (PBMCs) from healthy donors that were exposed to various concentrations of (A) CUR-analog 1 (Indole-4 CUR—BF2) and (B) CUR-analog 2 (Indole-5 CUR) or (C) the FDA-approved Bcl-2 inhibitor (venetoclax, used for comparison) was assessed.
(§5) Cell lines and PBCMs (peripheral blood mononuclear cells from healthy donors as non-cancer CONTROL) were seeded in quadruplicate (technical replicates). CellTiter-Glo® 2.0 reagent equal to the volume of cell culture medium present in each well was added and the plate was left to incubate at room temperature for 10 minutes to stabilize the luminescent signal. Luminescent signal/intensity from the 384-well plate was read on a plate reader. Cells/cell lines used: BCWM.1 (Waldenstrom macroglobulinemia cell line, WM); RPMI-8266 (Multiple myeloma cell line, MM); RS4; 11 (Acute lymphoblastic leukemia, ALL). For Apoptosis study cells were treated with the indicated agents and concentrations (FIG. 74) for 24 h and stained with annexin-V and propidium iodide (PI), followed by flow cytometry analysis.

KMS-11 = experiment: Apoptosis (annexin-V/PI flow cytometry), KMS-11; format: cell-based, human; settings: 10 uM
Protocol: as §4, §5

RPMI-8226 = experiment: Apoptosis (annexin-V/PI flow cytometry), RPMI-8226; format: cell-based, human; settings: 2.5 uM, 24 h
Protocol: as §4, §5

[2] = tested on: Various cancer cell lines; experiment: Cancer cell line growth at 1×10^−5 M curcuminoid; format: cell-based; settings: all cancer cell lines
Protocol: Various cancer cell lines were seeded into 384-well culture plates at 2×10^3 cell/well and incubated at 5% CO2, 37° C. The culture media was replaced with 1×10^−5 M of curcuminoid; 1,7-bis(2,3,6-trimethoxyphenyl)hepta-1,4,6-triene-3,5-dione, 7-bis(3-benzothiophene)hepta-1,4,6-triene-3,5-dione, or D-793176. The cell line growth was measured.

[3] = Table 4, repeats Table 3, read-out: IC50 MDA231 (Breast cancer)
[4] = Table 5, repeats Table 3, read-out: Leukemia MOLT-4 IC50
[5] = Homo sapiens, MDA-MB-231, Table 4, repeats Table 3, read-out: IC50 MDA231 (Breast cancer)

Compound: COc1ccc(/C=C/C2=CC(/C=C/c3ccc(OC)c(OC)c3)=[O+][B-](F)(F)O2)cc1OC [drawing 73]
- IC50 (MDA231; [3]): 2 µM

- IC50 (MOLT-4; [4]): 0.00056 µM
Compound: COc1ccc(/C=C/C2=CC(/C=C/c3ccc(OC)c(OC)c3)=[O+][B-](F)(F)O2)cc1OC [drawing 84]

- IC50 (MOLT-4; [4]): 0.043 µM
Compound: COc1ccc(/C=C/C(=O)C=C(O)/C=C/c2ccc(OC)c(OC)c2)cc1OC [drawing 83]

- IC50 (MOLT-4; [4]): 0.01 µM
Compound: COc1cc(F)c(/C=C/C2=CC(/C=C/c3cc(OC)c(OC)cc3F)=[O+][B-](F)(F)O2)cc1OC [drawing 86]

Compound: O=C(/C=C/c1ccc(F)cc1)C(F)(F)C(=O)/C=C/c1ccc(F)cc1 [drawing 77]
- IC50 (MDA231; [5]): 6.7 µM

Compound: F[B-]1(F)OC(/C=C/c2csc3ccccc23)=CC(/C=C/c2csc3ccccc23)=[O+]1 [7-BF2, Benzothiophene-3-Curcuminoid-BF2 adduct]
- anti-proliferative activity by the NCI-60 in-vitro assay ([1]; 10^−5 molar, Example 5): notable anti-proliferative activity

- IC50 (MOLT-4; [4]): 19 µM
Compound: COc1cc(/C=C/C(=O)C=C(O)/C=C/c2ccc(O)c(OC)c2)ccc1O [drawing 82]

Compound: COc1ccc(/C=C/C(=O)C(F)=C(O)/C=C/c2ccc(OC)c(OC)c2)cc1OC [drawing 69]
- IC50 (MDA231; [3]): 0.023 µM

Compound: COc1cc(F)c(/C=C/C2=CC(/C=C/c3cc(OC)c(OC)cc3F)=[O+][B-](F)(F)O2)cc1OC [drawing 72]
- IC50 (MDA231; [3]): 1.7 µM

Compound: Fc1ccc(/C=C/C2=CC(/C=C/c3ccc(F)cc3)=[O+][B-](F)(F)O2)cc1
- IC50 (MDA231; [3]): 1 µM

Compound: F[B-]1(F)OC(/C=C/c2ccc(C(F)(F)F)cc2)=CC(/C=C/c2ccc(C(F)(F)F)cc2)=[O+]1
- NCI-60 cell screening ([1]; words in the IC50 MDA231 column of Table 4): NCI-60 cell screening modest activity

Compound: COc1ccc(/C=C/C(=O)C=C(O)/C=C/c2ccc(OC)c(OC)c2)cc1OC [drawing 70]
- IC50 (MDA231; [3]): 0.28 µM

- IC50 (MOLT-4; Homo sapiens, MOLT-4, CellTiter-Glo Luminescent Cell Viability Assay, read-out: Leukemia IC50 (μM) MOLT-4): 1.32 µM
- IC50 (LNCap): 29.2 µM
Compound: O=C(/C=C/c1ccc(F)cc1)C(F)(F)C(=O)/C=C/c1ccc(F)cc1 [compound 12]
- IC50 (MDA231; Homo sapiens, MDA-MB-231, MTT assay, read-out: Breast Cancer IC50 (μM) MDA231): 6.7 µM

- melting point: 148 to 149 °C
Compound: COc1ccc(/C=C/C(=O)C(F)(F)C(=O)/C=C/c2ccc(OC)c(OC)c2)cc1OC [compound 7 of FIG. 2, (1E,6E)-4,4-Difluoro-1,7-bis(3,4-dimethoxyphenyl)hepta-1,6-diene-3,5-dione]

- IC50 (MOLT-4; [4]): 0.076 µM
Compound: COc1ccc(/C=C/C(=O)C(F)=C(O)/C=C/c2ccc(OC)c(OC)c2)cc1OC [drawing 85]

- melting point: 144 to 146 °C
Compound: COc1cc(C=Cc2cc(C=Cc3cc(OC)c(OC)c(OC)c3)n(-c3ccccc3)n2)cc(OC)c1OC [compound 41 of FIG. 43, 3,5-bis-(3,4,5-Trimethoxy-styryl)-1-phenylpyrazole]

- melting point: 150 to 153 °C
Compound: O=C(/C=C/c1ccc(OCc2ccccc2)c(OCc2ccccc2)c1)/C=C(O)\C=C\c1ccc(OCc2ccccc2)c(OCc2ccccc2)c1 [compound 5 of FIG. 35, (1E,4E,6E)-5-Hydroxy-1,7-bis(3,4-dibenzyloxyphenyl)hepta-1,4,6-trien-3-one]

- melting point: 142 to 144 °C
Compound: COc1cc(F)c(C=Cc2cc(C=Cc3cc(OC)c(OC)cc3F)n(-c3ccccc3)n2)cc1OC [compound 22 of FIG. 43, 3,5-bis-(6-Fluoro-3,4-dimethoxystyryl)-1-phenylpyrazole]

- melting point: 109 to 111 °C
Compound: Fc1ccc(C=Cc2cc(C=Cc3ccc(F)cc3)n(-c3ccccc3)n2)cc1 [compound 31 of FIG. 43, 3,5-bis-(4-Fluorostyryl)-1-phenylpyrazole]

- melting point: 159 to 160 °C
Compound: O=C(/C=C/c1csc2ccccc12)/C=C(O)\C=C\c1csc2ccccc12 [compound 7 of Example 5, (1E,4E,6E)-5-Hydroxy-1,7-bis(benzo[b]thiophen-3-yl)hepta-1,4,6-trien-3-one]

- melting point: 148 to 150 °C
Compound: COc1cc(F)c(/C=C/C(=O)/C(F)=C(O)/C=C/c2cc(OC)c(OC)cc2F)cc1OC [compound 17 of FIG. 2, (1E,4E,6E)-4-Fluoro-5-hydroxy-1,7-bis(3,4-dimethoxy-6-fluorophenyl)hepta-1,4,6-trien-3-one]

- melting point: 155 to 156 °C
Compound: Fc1ccc(C=Cc2cc(C=Cc3ccc(F)cc3)n(-c3ccc(OC(F)(F)F)cc3)n2)cc1 [compound 32 of FIG. 43, 3,5-bis-(4-Fluorostyryl)-1-(4-trifluoromethoxyphenyl)pyrazole]

Compound: O=C(/C=C/c1ccc(F)cc1)C(F)=C(O)/C=C/c1ccc(F)cc1
- IC50 (MDA231; [3]): 12 µM

Compound: O=C(/C=C/c1ccc(SC(F)(F)F)cc1)/C=C(O)\C=C\c1ccc(SC(F)(F)F)cc1 [compound 19 of FIG. 35, (1E,4E,6E)-5-Hydroxy-1,7-bis(4-trifluoromethylthiophenyl)hepta-1,4,6-trien-3-one]
- anti-proliferative potency against HCT-116 ([1]; dose mean graph, FIG. 22): high anti-proliferative potency

Compound: COc1cc(/C=C/C(=O)C(F)=C(O)/C=C/c2ccc(O)c(OC)c2)ccc1O
- IC50 (MDA231; [3]): 6.2 µM

Compound: (1E,4E,6E)-5-Hydroxy-1,7-bis(indole-5)hepta-1,4,6-trien-3-one [compound 2 of Example 5]
- apoptosis, MM1.S (MM1.S): 15%
- apoptosis, KMS11 (KMS-11): 54%
- apoptosis, RPMI-8226 (RPMI-8226): 65%

Compound: 1,7-bis(2,3,6-trimethoxyphenyl)hepta-1,4,6-triene-3,5-dione
- cell line growth relative to non-treated cells [2]: ≤ 50%

Compound: COc1cc(/C=C/C(=O)C=C(O)/C=C/c2ccc(O)c(OC)c2)ccc1O [drawing 75]
- IC50 (MDA231; [3]): 11.5 µM

Compound: COc1cc(/C=C/C(=O)C(F)(F)C(=O)/C=C/c2ccc(OC)c(OC)c2)ccc1O
- IC50 (MDA231; [5]): 2.2 µM

- melting point: 137 to 139 °C
Compound: FC(F)(F)c1ccc(C=Cc2cc(C=Cc3ccc(C(F)(F)F)cc3)n(-c3ccccc3)n2)cc1 [compound 37 of FIG. 43, 3,5-bis-(4-Trifluoromethylstyryl)-1-phenylpyrazole]

- melting point: 104 to 106 °C
Compound: COc1ccc(/C=C/C(=O)/C=C(O)\C=C\c2ccc(OC)c(OC)c2OC)c(OC)c1OC [compound 7 of FIG. 35, (1E,4E,6E)-5-Hydroxy-1,7-bis(2,3,4-trimethoxyphenyl)hepta-1,4,6-trien-3-one]

From patent US11117907B2, “Curcuminoid-inspired synthetic compounds as anti-tumor agents” (University of North Florida Board of Trustees, priority 2017, dated 2021)
